Measurements taken from patent US8865750B2, “Small molecule inhibitors of RGS proteins” (The Regents of The University of Michigan, priority 2011, dated 2014).
“Also recorded” adds a separate entry of the source.

What was measured:
Gα0 = Gα0 (Homo sapiens (Human), UniProt P09471); assay: Intrinsic GTP hydrolysis by Gαo (single turnover); format: biochemical
Procedure: Single Turnover GTPase Measurements:
Compounds were tested for the ability to inhibit the RGS4 and RGS8-stimulated increase in GTP hydrolysis by Gα0 as described previously (Roman, D. L., et al., Mol Pharmacol, 2007. 71(1): p. 169-75; Roof, R. A., et al., Chem Biol Drug Des, 2006. 67(4): p. 266-74).
Single-turnover GAP assay: Experiments were performed as previously described using purified his6-tagged Gαo (Blazer et al., Biochemistry 50, 3181-3192; Roof et al., (2008) Chem Biol Drug Des 72, 111-119).

RGS4 [1] = assay: FCPIA: Gαo binding to RGS4
Description: (§1) FCPIA Dose Response and Reversibility Experiments:

papain = papain (Carica papaya (Papaya), UniProt P00784); assay: biochemical; format: biochemical
Chain of papain (P00784 134-345): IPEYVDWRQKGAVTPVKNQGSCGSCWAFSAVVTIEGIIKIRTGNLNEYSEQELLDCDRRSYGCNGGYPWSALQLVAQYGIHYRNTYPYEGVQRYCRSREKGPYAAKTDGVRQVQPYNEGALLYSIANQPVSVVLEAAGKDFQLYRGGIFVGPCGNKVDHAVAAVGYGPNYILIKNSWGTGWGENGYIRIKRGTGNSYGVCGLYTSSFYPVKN
Description: Papain (Sigma-Aldrich, St. Louis, Mo.) activity was monitored by the increase in fluorescence caused by the liberation of fluorescein from autoquenched fluorescein-conjugated casein (AnaSpec, San Jose, Calif.).

RGS4 [2] = target: RGS4 (Homo sapiens (Human), UniProt P49798); assay: Carbachol Ca2+ mobilization, M3 HEK-293 cells with doxycycline-induced RGS4; format: cell-based
Chain of RGS4 (Homo sapiens (Human), UniProt P49798) (P49798 whole entry): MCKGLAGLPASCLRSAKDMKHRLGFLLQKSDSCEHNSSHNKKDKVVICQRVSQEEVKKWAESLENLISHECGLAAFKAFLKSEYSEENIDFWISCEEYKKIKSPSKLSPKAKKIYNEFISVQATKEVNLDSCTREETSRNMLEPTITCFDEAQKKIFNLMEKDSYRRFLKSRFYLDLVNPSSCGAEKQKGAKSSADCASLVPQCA
Procedure: Calcium Mobilization Experiments:
A stable cell line was developed based upon the HEK-293 Flp-In TREx cell line (Invitrogen, Carlsbad, Calif.) that stably express the muscarinic M3 receptor and have human RGS4 expression under doxycycline control. Cells were maintained in DMEM supplemented with 10% fetal bovine serum and Penicillin (100 units/ml)-Streptomycin (100 μg/ml) under 5% CO2 at 37° C. For experiments, cells were split into 96-well black, clear bottom, poly-D-lysine coated microtiter plates (Nunc, Cat. #152037) at a density of 20,000 cells/well in DMEM containing 10% fetal bovine serum and Penicillin (100 units/ml), Streptomycin (100 μg/ml). […] Compounds and/or carbachol were added to the wells and the fluorescence intensity was measured using a FlexStation (Molecular Devices, Sunnyvale, Calif.) plate reader. Data analysis was performed by calculating the area under the curve or maximal fluorescence intensity from a 120 second kinetic measurement.
Calcium signaling transients: A stable cell line was developed based upon the HEK-293 Flp-In TREx cell line (Invitrogen, Carlsbad, Calif.) that stably express the muscarinic M3 receptor and have human RGS4 expression under doxycycline control. […] Compounds and/or carbachol were added to the wells and the fluorescence intensity was measured using a FlexStation (Molecular Devices, Sunnyvale, Calif.) plate reader. […]

RGS19 = RGS19 (Homo sapiens (Human), UniProt P49795); assay: FCPIA: Gαo binding to RGS19; details: Table 7
Chain of RGS19 (P49795 whole entry, species assumed): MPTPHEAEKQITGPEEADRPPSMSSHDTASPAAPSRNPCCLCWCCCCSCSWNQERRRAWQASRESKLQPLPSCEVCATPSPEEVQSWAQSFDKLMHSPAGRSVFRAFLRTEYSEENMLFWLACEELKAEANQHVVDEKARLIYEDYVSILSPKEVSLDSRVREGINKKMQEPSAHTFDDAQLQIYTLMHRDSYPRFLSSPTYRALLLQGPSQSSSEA
Procedure: as §1
FCPIA was performed as previously described using chemically biotinylated RGS proteins and AlexaFluor-532 labeled Gα0. (Roman et al., J Biomol Screen, 2009; Blazer, L. L., et al., Mol Pharmacol).
RGS/Gα binding studies: The binding of biotinylated RGS proteins to fluorescently labeled Gαo was measured by Flow Cytometry Protein Interaction Assay (FCPIA) method previously described (Roman et al., (2009) J Biomol Screen.; Blazer et al., (2010) Curr Protoc Cytom Chapter 13, Unit 13 11 11-15; Roman et al., (2007) Mol Pharmacol 71, 169-175) as were the measures of compound reversibility.

PLCβ3 = PLCβ3 (Homo sapiens (Human), UniProt Q01970); assay: PLCβ inhibition assay; format: biochemical; details: Table 7
Chain of PLCβ3 (Q01970 whole entry, species assumed): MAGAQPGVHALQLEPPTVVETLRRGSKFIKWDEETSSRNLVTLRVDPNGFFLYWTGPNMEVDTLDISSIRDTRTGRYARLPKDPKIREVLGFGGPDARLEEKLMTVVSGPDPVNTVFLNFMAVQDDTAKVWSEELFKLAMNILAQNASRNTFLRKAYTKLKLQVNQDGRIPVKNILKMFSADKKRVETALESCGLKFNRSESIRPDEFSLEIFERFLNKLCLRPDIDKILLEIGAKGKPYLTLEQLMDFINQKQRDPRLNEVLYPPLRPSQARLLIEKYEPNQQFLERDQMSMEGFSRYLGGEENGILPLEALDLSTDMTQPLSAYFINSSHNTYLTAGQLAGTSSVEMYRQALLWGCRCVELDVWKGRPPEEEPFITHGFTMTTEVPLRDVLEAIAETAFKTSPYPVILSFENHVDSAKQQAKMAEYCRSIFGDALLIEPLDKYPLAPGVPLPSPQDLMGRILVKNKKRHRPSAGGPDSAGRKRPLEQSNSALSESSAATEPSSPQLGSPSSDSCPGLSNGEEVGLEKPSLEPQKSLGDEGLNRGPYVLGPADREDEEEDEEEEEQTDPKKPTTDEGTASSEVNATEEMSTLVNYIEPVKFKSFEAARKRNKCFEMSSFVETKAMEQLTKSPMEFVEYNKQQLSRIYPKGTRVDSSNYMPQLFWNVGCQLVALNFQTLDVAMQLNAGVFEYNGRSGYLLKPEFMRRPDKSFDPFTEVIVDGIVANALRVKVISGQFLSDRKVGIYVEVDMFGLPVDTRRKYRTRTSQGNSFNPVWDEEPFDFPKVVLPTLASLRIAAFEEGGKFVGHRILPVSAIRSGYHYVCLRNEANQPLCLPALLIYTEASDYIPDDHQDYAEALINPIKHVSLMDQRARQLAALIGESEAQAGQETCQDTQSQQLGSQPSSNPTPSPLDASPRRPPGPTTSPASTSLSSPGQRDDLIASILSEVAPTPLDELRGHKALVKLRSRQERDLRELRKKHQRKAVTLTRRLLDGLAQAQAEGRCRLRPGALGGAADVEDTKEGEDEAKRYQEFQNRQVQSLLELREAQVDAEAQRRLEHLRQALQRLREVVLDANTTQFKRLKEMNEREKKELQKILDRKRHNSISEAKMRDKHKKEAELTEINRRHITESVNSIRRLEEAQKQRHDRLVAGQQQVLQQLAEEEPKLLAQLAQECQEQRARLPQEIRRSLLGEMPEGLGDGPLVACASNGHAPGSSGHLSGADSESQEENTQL
Procedure: PLCβ inhibition assay: Lipid vesicles containing 200 μM phosphatidylethanolamine, 50 μM PIP2 (Avanti Polar Lipids), and ˜4000-8000 cpm [^3H]-labeled PIP2 (Perkin-Elmer) per assay were generated by combining the lipids in a borosilicate glass tube and drying the mixture under a stream of nitrogen. Dried lipids were resuspended in 50 mM HEPES pH 7, 80 mM KCl, 2 mM EGTA and 1 mM DTT using a bath sonicator. Activity assays were performed in a final volume of 60 μL containing 3 ng mL^−1 PLCβ3, 50 mM HEPES pH 7, 80 mM KCl, 15 mM NaCl, 0.83 mM MgCl2, 3 mM DTT, 1 mg mL^−1 BSA, 2.5 mM EGTA, 0.2 mM EDTA, 2% DMSO, and enough CaCl2 to give a free concentration of ˜200 nM. […] The reactions were initiated by the addition of liposomes and transferred to 30° C. for 5 min. Reactions were terminated by the addition of 100 μL 10 mg mL^−1 BSA and 200 μL 10% (w/v) ice-cold trichloroacetic acid. The reactions were centrifuged at 8000 g for 5 min to pellet proteins and liposomes, and 200 μL of the resulting supernatant containing free [^3H]-IP3 was measured by scintillation counting (Ghosh et al., (2004) Methods Mol Biol 237, 67-75) GSK-3β inhibition assay: […]

Solubility experiments = format: physicochemical; details: water; aqueous
Procedure: Compounds were diluted to 100 mM in DMSO and the further diluted to 500 μM in H2O, vortexed and centrifuged for 10 minutes at 13,000×g at ambient temperature.

Chain of Gα0 (P09471 whole entry): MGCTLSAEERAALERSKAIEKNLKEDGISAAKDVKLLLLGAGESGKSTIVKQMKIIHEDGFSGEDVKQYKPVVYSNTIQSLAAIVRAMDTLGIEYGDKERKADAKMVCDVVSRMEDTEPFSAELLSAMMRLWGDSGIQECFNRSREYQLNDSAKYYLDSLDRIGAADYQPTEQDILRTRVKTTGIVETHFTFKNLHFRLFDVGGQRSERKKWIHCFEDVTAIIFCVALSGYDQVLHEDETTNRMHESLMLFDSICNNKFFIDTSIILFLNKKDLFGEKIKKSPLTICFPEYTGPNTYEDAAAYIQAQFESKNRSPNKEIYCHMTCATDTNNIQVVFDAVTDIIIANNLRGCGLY

Which “basal GTPase activity of the G protein” value (Gα0) does the source give for `CCCCn1c(=O)sn(CC)c1=O` [CCG-203769, 2-ethyl-4-butyl-1,2,4-thiadiazolidine-3,5-dione] here?
Its value is “without inhibiting the basal GTPase activity”.

And the “reversibility of RGS4 inhibition after washing” value (RGS4 [1]; 100 μM CCG-50014 or 500 nM CCG-203769, beads washed)?
The value was “irreversible”.

And the IC50 (RGS4 [1]; FCPIA, listed as 11b, read-out: IC50 against RGS4)?
Its IC50 is 14.4 nM.

What about the “RGS4 Hill Slope” value (RGS4 [1]; Table 3) of the same molecule?
The value was −0.71.

What about the inhibition of papain (papain; 30 μM) of the same molecule?
The inhibition of papain was “unable to inhibit the protease activity of papain”.

What about the IC50 (papain; Table 7) of the same molecule?
Its IC50 is greater than 100 µM.

And the “lowest concentration with enhanced Ca2+ signaling” value (RGS4 [2])?
Its value is 1 µM.

What about the “reversal of RGS4-mediated suppression of carbachol Ca2+ response” value (RGS4 [2]; 15 min pretreatment, 1 and 3 μM) of the same molecule?
The value was “partially rescued; also recorded: partially reverse”.

And the IC50 (RGS19)?
The IC50 was 0.14 µM.

What about the IC50 (PLCβ3) of the same molecule?
Its IC50 is greater than 100 µM.

And the solubility (Solubility experiments)?
The solubility was greater than 5 mM.
